Source: US20110207771A1, “N-(L-ALKYL-2-PHENYLETHYL)-CARBOXAMIDE DERIVATIVES AND USE THEREOF AS FUNGICIDES” (SYNGENTA CROP PROTECTION, INC., priority 2006, published 2011)

Tests used:
[1] = tested on: Mycosphaerella arachidis (Cercospora arachidicola); test: Example B-12: action against Mycosphaerella arachidis, fungal growth assay; format: cell-based; conditions: 6-7 days
Description: (§1) Example B-12: Action Against Mycosphaerella arachidis (Early Leaf Spot of Groundnut; Cercospora arachidicola (Anamorph))—Fungal Growth Assay Conidia of the fungus from cryogenic storage were directly mixed into nutrient broth (PDB potato dextrose broth). After placing a (DMSO) solution of the test compounds into a microtiter plate (96-well format) the nutrient broth containing the fungal spores was added. The test plates were incubated at 24° C. and the inhibition of growth was measured photometrically after 6-7 days. The activity of a compound is expressed as fungal growth inhibition (0=no growth inhibition, ratings of 80% to 99% mean good to very good inhibition, 100%=complete inhibition).

Septoria tritici = test: Example B-13: action against Septoria tritici, fungal growth assay; format: cell-based; conditions: for fungal growth inhibition: 72 hrs
Description: as §1, with “B-13:” for “B-12:”, “Septoria tritici—Fungal” for “Mycosphaerella arachidis (Early Leaf Spot of Groundnut; Cercospora arachidicola (Anamorph))—Fungal”, “determined” for “measured”, “72 hrs.” for “6-7 days.”

[2] = tested on: Monographella nivalis (Fusarium nivale, Microdochium nivale); test: Example B-14: action against Monographella nivalis, fungal growth assay; format: cell-based; conditions: 72 hrs
Description: Example B-14: Action Against Monographella nivalis (Anamorph: Fusarium nivale, Microdochium nivale; Snow Mould)—Fungal Growth Assay After placing a DMSO-solution (2% Dimethylsulfoxid, 0.025% Tween 20) of the test compounds into a microtiter plate (96-well format) the nutrient broth containing the fungal spores was added. 40.000 conidia/ml of the fungus from cryogenic storage were directly mixed into nutrient broth (PDB potato dextrose broth). The compounds were tested at a variety of application rates; these rates are shown in parts per million (ppm) in the table. The test plates were incubated at 24° C. and the inhibition of growth was measured photometrically after 72 hrs (0=no growth inhibition, ratings of 80% to 99% mean good to very good inhibition, 100%=complete inhibition).

Pyrenophora teres = test: Example B-15: action against Pyrenophora teres (net blotch) on barley leaf segments; format: in vivo; conditions: 4 days after inoculation
Description: Example B-15: Action Against Pyrenophora teres (Net Blotch) on Barley Barley leaf segments are placed on agar in multiwell plates (24-well format) and sprayed with test solutions (200 ppm, […], and 20 ppm of active ingredient). After drying, the leaf disks are inoculated with a spore suspension of the fungus. After appropriate incubation the activity of a compound is assessed 4 days after inoculation as preventive fungicidal activity (in %).

Botrytis cinerea = test: Example B-11: action against Botrytis cinerea, fungal growth assay; format: cell-based; conditions: 48-72 hrs
Description: as §1, with “B-11:” for “B-12:”, “Botrytis cinerea—Fungal” for “Mycosphaerella arachidis (Early Leaf Spot of Groundnut; Cercospora arachidicola (Anamorph))—Fungal”, “determined” for “measured”, “48-72 hrs.” for “6-7 days.”

Which melting point does the source give for CC(Cc1ccc(Cl)cc1Cl)NC(=O)c1cn(C)nc1C(F)F (stereo not shown) [Compound 1.197, 3-difluoromethyl-1-methyl-1H-pyrazole-4-carboxylic acid [2-(2,4-dichlorophenyl)-1-methyl-ethyl]-amide] here?
The melting point was 157 °C.

What does the source list for CC(Cc1ccc(Cl)cc1Cl)NC(=O)c1cn(C)nc1C(F)F (single isomer, unassigned; (+)) [(+)-3-difluoromethyl-1-methyl-1H-pyrazole-4-carboxylic acid [2-(2,4-dichlorophenyl)-1-methyl-ethyl]-amide]?
inhibition at 20 ppm ([1]; Mycosphaerella arachidis, 20 ppm): 100%; inhibition at 6 ppm (Septoria tritici; Zymoseptoria tritici, 72 h, 6 ppm): 100%; inhibition at 20 ppm (Septoria tritici; Zymoseptoria tritici, 72 h, 20 ppm): 100%

Which melting point does the source give for CC(Cc1ccc(Br)cc1Cl)NC(=O)c1cn(C)nc1C(F)F (stereo not shown) [Compound 1.451, 3-difluoromethyl-1-methyl-1H-pyrazole-4-carboxylic acid [2-(4-bromo-2-chlorophenyl)-1-methyl-ethyl]-amide] here?
The melting point was 183 to 184 °C.

For CC(Cc1ccc(-c2ccc(Cl)cc2)cc1Cl)NC(=O)c1cn(C)nc1C(F)F (stereo not shown) [Compound 1.462, 3-difluoromethyl-1-methyl-1H-pyrazole-4-carboxylic acid [2-(3,4′-dichlorobiphenyl-4-yl)-1-methyl-ethyl]-amide], which melting point is on record?
Its melting point is 96 to 98 °C.

For Cn1cc(C(=O)NC2(Cc3ccc(Cl)cc3Cl)CC2)c(C(F)F)n1 [Compound 1.231, 3-difluoromethyl-1-methyl-1H-pyrazole-4-carboxylic acid [1-(2,4-dichlorobenzyl)-cyclopropyl]-amide], which melting point is on record?
The melting point was 165 to 168 °C.

With CC(Cc1ccc(Cl)cc1Cl)NC(=O)c1cn(C)nc1C(F)F (single isomer, unassigned; (-)) [(−)-3-difluoromethyl-1-methyl-1H-pyrazole-4-carboxylic acid ] [(−)-3-difluoromethyl-1-methyl-1H-pyrazole-4-carboxylic acid [2-(2,4-dichlorophenyl)-1-methyl-ethyl]-amide] as the compound, how does the inhibition of growth ([2]; 2 ppm) read?
Its inhibition of growth is 0%.

And the inhibition of growth ([2]; 6 ppm)?
The inhibition of growth was 0%.

What about the inhibition of growth ([2]; 20 ppm) of the same compound?
Its inhibition of growth is 20%.

What about the fungal growth inhibition ([1]; 2 ppm) of the same compound?
The fungal growth inhibition was 0%.

What about the fungal growth inhibition ([1]; 6 ppm) of the same compound?
Its fungal growth inhibition is 50%.

What about the fungal growth inhibition ([1]; 20 ppm) of the same compound?
The fungal growth inhibition was 80%.

And the preventive fungicidal activity (Pyrenophora teres; 20 ppm)?
Its preventive fungicidal activity is 80%.

And the preventive fungicidal activity (Pyrenophora teres; 60 ppm)?
The preventive fungicidal activity was 100%.

And the preventive fungicidal activity (Pyrenophora teres; 200 ppm)?
Its preventive fungicidal activity is 100%.

What about the fungal growth inhibition (Botrytis cinerea; 2 ppm) of the same compound?
The fungal growth inhibition was 0%.

What about the fungal growth inhibition (Botrytis cinerea; 6 ppm) of the same compound?
Its fungal growth inhibition is 20%.

And the fungal growth inhibition (Botrytis cinerea; 20 ppm)?
The fungal growth inhibition was 20%.

What about the fungal growth inhibition (Septoria tritici; 2 ppm) of the same compound?
The fungal growth inhibition was 0%.

What about the fungal growth inhibition (Septoria tritici; 6 ppm) of the same compound?
The fungal growth inhibition was 80%.

What about the fungal growth inhibition (Septoria tritici; 20 ppm) of the same compound?
The fungal growth inhibition was 100%.

Which inhibition of growth ([2]; 2 ppm) does the source give for CC(Cc1ccc(Cl)cc1Cl)NC(=O)c1cn(C)nc1C(F)F (single isomer, unassigned; (+)) [(+)-3-difluoromethyl-1-methyl-1H-pyrazole-4-carboxylic acid ] [(+)-3-difluoromethyl-1-methyl-1H-pyrazole-4-carboxylic acid [2-(2,4-dichlorophenyl)-1-methyl-ethyl]-amide] here?
Its inhibition of growth is 100%.

And the inhibition of growth ([2]; 6 ppm)?
The inhibition of growth was 100%.

And the inhibition of growth ([2]; 20 ppm)?
Its inhibition of growth is 100%.

What about the preventive fungicidal activity (Pyrenophora teres; 20 ppm) of the same compound?
The preventive fungicidal activity was 100%.

What about the preventive fungicidal activity (Pyrenophora teres; 60 ppm) of the same compound?
Its preventive fungicidal activity is 100%.

What about the preventive fungicidal activity (Pyrenophora teres; 200 ppm) of the same compound?
Its preventive fungicidal activity is 100%.

What about the fungal growth inhibition (Botrytis cinerea; 2 ppm) of the same compound?
Its fungal growth inhibition is 80%.

What about the fungal growth inhibition (Botrytis cinerea; 6 ppm) of the same compound?
Its fungal growth inhibition is 100%.

And the fungal growth inhibition (Botrytis cinerea; 20 ppm)?
The fungal growth inhibition was 100%.
